According to ChEMBL document CHEMBL1201862, “PubChem BioAssay data set” (2004):
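Exposure lasted 48 hours, with cells grown in 96-well plates and compounds tested at five concentrations. GI50 marks 50% less growth.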 Active and inactive are the calls of the source. Rule as the data show it: active = GI50 up to about 1.1 µM and inactive = higher.

How the values were obtained:
Test in all cases: NCI-60 cell line screen, 48 h
HOP-92 = test system: HOP-92
ACHN = test system: ACHN
LXFL 529 = test system: LXFL 529
OVCAR-8 = test system: OVCAR-8
SW-620 = test system: SW-620
SNB-19 = test system: SNB-19
A498 = test system: A498
SF-539 = test system: SF-539
SNB-78 = test system: SNB-78
NCI-H522 = test system: NCI-H522
DMS-114 = test system: DMS-114
SF-295 = test system: SF-295
CAKI-1 = test system: CAKI-1
Malme-3M = test system: Malme-3M
SR = test system: SR
NCI-H23 = test system: NCI-H23
CCRF-CEM = test system: CCRF-CEM
SK-MEL-2 = test system: SK-MEL-2
SN12C = test system: SN12C
MOLT-4 = test system: MOLT-4
KM-20L2 = test system: KM-20L2
SK-MEL-5 = test system: SK-MEL-5
TK-10 = test system: TK-10
SK-OV-3 = test system: SK-OV-3
UO-31 = test system: UO-31
SF-268 = test system: SF-268
HT-29 = test system: HT-29
M19-MEL = test system: M19-MEL
HCT-15 = test system: HCT-15
RXF 393 = test system: RXF 393
NCI-H226 = test system: NCI-H226
HL-60 = test system: HL-60
UACC-62 = test system: UACC-62
A549 = test system: A549
RPMI-8226 = test system: RPMI-8226
U-251 = test system: U-251
COLO 205 = test system: COLO 205
UACC-257 = test system: UACC-257
OVCAR-3 = test system: OVCAR-3
EKVX = test system: EKVX
KM12 = test system: KM12
DMS-273 = test system: DMS-273
786-0 = test system: 786-0
K562 = test system: K562
HCC 2998 = test system: HCC 2998
OVCAR-4 = test system: OVCAR-4
SK-MEL-28 = test system: SK-MEL-28
SNB-75 = test system: SNB-75
HOP-18 = test system: HOP-18
IGROV-1 = test system: IGROV-1
XF498 = test system: XF498
HCT-116 = test system: HCT-116
LOX IMVI = test system: LOX IMVI
OVCAR-5 = test system: OVCAR-5
M14 = test system: M14
HOP-62 = test system: HOP-62
NCI-H460 = test system: NCI-H460
DLD-1 = test system: DLD-1
RXF 631 = test system: RXF 631

SMILES: O=C1C(Cl)C(c2ccc(O)cc2)N1n1cnc2ccccc2c1=O (stereo unspecified)
- GI50 (HOP-92): 38.2 µM (inactive)
- GI50 (ACHN): 16 µM (inactive)
- GI50 (LXFL 529): 16.7 µM (inactive)
- GI50 (OVCAR-8): 16.1 µM (inactive)
- GI50 (SW-620): 22.5 µM (inactive)
- GI50 (SNB-19): > 100 µM (inactive)
- GI50 (A498): > 100 µM (inactive)
- GI50 (SF-539): 31.9 µM (inactive)
- GI50 (SNB-78): 49 µM (inactive)
- GI50 (NCI-H522): 16.6 µM (inactive)
- GI50 (DMS-114): 28.2 µM (inactive)
- GI50 (SF-295): 98.4 µM (inactive)
- GI50 (CAKI-1): 31.5 µM (inactive)
- GI50 (Malme-3M): 37.2 µM (inactive)
- GI50 (SR): 18.8 µM (inactive)
- GI50 (NCI-H23): 31 µM (inactive)
- GI50 (CCRF-CEM): 26.3 µM (inactive)
- GI50 (SK-MEL-2): 26.9 µM (inactive)
- GI50 (SN12C): 35.2 µM (inactive)
- GI50 (MOLT-4): 25.6 µM (inactive)
- GI50 (KM-20L2): 58.9 µM (inactive)
- GI50 (SK-MEL-5): 52.8 µM (inactive)
- GI50 (TK-10): 40.6 µM (inactive)
- GI50 (SK-OV-3): > 100 µM (inactive)
- GI50 (UO-31): 55.1 µM (inactive)
- GI50 (SF-268): 45.6 µM (inactive)
- GI50 (HT-29): 29.4 µM (inactive)
- GI50 (M19-MEL): 22.2 µM (inactive)
- GI50 (HCT-15): 27.4 µM
- GI50 (RXF 393): 19 µM (inactive)
- GI50 (NCI-H226): > 100 µM (inactive)
- GI50 (HL-60): 24.5 µM (inactive)
- GI50 (UACC-62): 18.7 µM (inactive)
- GI50 (A549): > 100 µM (inactive)
- GI50 (RPMI-8226): 19 µM (inactive)
- GI50 (U-251): 45.4 µM (inactive)
- GI50 (COLO 205): 25.3 µM (inactive)
- GI50 (UACC-257): 43.6 µM (inactive)
- GI50 (OVCAR-3): 32 µM (inactive)
- GI50 (EKVX): 29.7 µM (inactive)
- GI50 (KM12): 51.1 µM (inactive)
- GI50 (DMS-273): 39.8 µM (inactive)
- GI50 (786-0): 28.8 µM (inactive)
- GI50 (K562): 31.3 µM (inactive)
- GI50 (HCC 2998): 61.8 µM (inactive)
- GI50 (OVCAR-4): 25.5 µM (inactive)
- GI50 (SK-MEL-28): 26.7 µM (inactive)
- GI50 (SNB-75): 49 µM (inactive)
- GI50 (HOP-18): 49.4 µM (inactive)
- GI50 (IGROV-1): > 57.5 µM (inactive)
- GI50 (XF498): 33.5 µM (inactive)
- GI50 (HCT-116): 17.1 µM (inactive)
- GI50 (LOX IMVI): 21 µM (inactive)
- GI50 (OVCAR-5): > 79.8 µM (inactive)
- GI50 (M14): 30.5 µM (inactive)
- GI50 (HOP-62): > 100 µM (inactive)
- GI50 (NCI-H460): 33.1 µM (inactive)
- GI50 (DLD-1): 19.1 µM (inactive)

SMILES: CCCCCCCCCCCOC(=S)NC(C)C
- GI50 (HOP-92): 14.1 µM (inactive)
- GI50 (ACHN): 19.3 µM (inactive)
- GI50 (LXFL 529): 25.8 µM (inactive)
- GI50 (OVCAR-8): 16.6 µM (inactive)
- GI50 (SW-620): 16.3 µM (inactive)
- GI50 (SNB-19): 29.6 µM (inactive)
- GI50 (A498): 19.6 µM (inactive)
- GI50 (SF-539): 18.3 µM (inactive)
- GI50 (SNB-78): 33.9 µM (inactive)
- GI50 (NCI-H522): 18.2 µM (inactive)
- GI50 (DMS-114): 17.8 µM (inactive)
- GI50 (SF-295): 21 µM (inactive)
- GI50 (CAKI-1): 19 µM (inactive)
- GI50 (Malme-3M): 21.8 µM (inactive)
- GI50 (SR): 20.5 µM (inactive)
- GI50 (NCI-H23): 19.3 µM (inactive)
- GI50 (CCRF-CEM): 23.5 µM (inactive)
- GI50 (SK-MEL-2): 19.2 µM (inactive)
- GI50 (SN12C): 16.1 µM (inactive)
- GI50 (MOLT-4): 16.7 µM (inactive)
- GI50 (KM-20L2): 16 µM (inactive)
- GI50 (SK-MEL-5): 17 µM (inactive)
- GI50 (TK-10): 28.2 µM (inactive)
- GI50 (SK-OV-3): 19.3 µM (inactive)
- GI50 (UO-31): 15.8 µM (inactive)
- GI50 (SF-268): 21.2 µM (inactive)
- GI50 (HT-29): 17.1 µM (inactive)
- GI50 (M19-MEL): 24.9 µM (inactive)
- GI50 (HCT-15): 17.5 µM
- GI50 (RXF 393): 19.8 µM (inactive)
- GI50 (HL-60): 15.6 µM (inactive)
- GI50 (UACC-62): 15.5 µM (inactive)
- GI50 (A549): 21.4 µM (inactive)
- GI50 (RPMI-8226): 14 µM (inactive)
- GI50 (U-251): 15.8 µM (inactive)
- GI50 (UACC-257): 19.1 µM (inactive)
- GI50 (EKVX): 20.9 µM (inactive)
- GI50 (KM12): 19.7 µM (inactive)
- GI50 (DMS-273): 18.3 µM (inactive)
- GI50 (786-0): 19.1 µM (inactive)
- GI50 (K562): 21.2 µM (inactive)
- GI50 (HCC 2998): 17 µM (inactive)
- GI50 (OVCAR-4): 24.8 µM (inactive)
- GI50 (SK-MEL-28): 20.7 µM (inactive)
- GI50 (SNB-75): 23.1 µM (inactive)
- GI50 (HOP-18): 27.5 µM (inactive)
- GI50 (IGROV-1): 20.6 µM (inactive)
- GI50 (XF498): 16.7 µM (inactive)
- GI50 (HCT-116): 17.5 µM (inactive)
- GI50 (LOX IMVI): 16.7 µM (inactive)
- GI50 (OVCAR-5): 24.7 µM (inactive)
- GI50 (M14): 23.2 µM (inactive)
- GI50 (HOP-62): 20.1 µM (inactive)
- GI50 (NCI-H460): 21.3 µM (inactive)
- GI50 (DLD-1): 21.4 µM (inactive)

SMILES: C/C(=N\NC(=O)C(N)=O)c1c(O)cc(C)oc1=O
- GI50 (HOP-92): > 100 µM (inactive)
- GI50 (ACHN): > 100 µM (inactive)
- GI50 (LXFL 529): > 100 µM (inactive)
- GI50 (OVCAR-8): > 100 µM (inactive)
- GI50 (SW-620): > 100 µM (inactive)
- GI50 (SNB-19): > 100 µM (inactive)
- GI50 (A498): > 100 µM (inactive)
- GI50 (SF-539): > 100 µM (inactive)
- GI50 (SNB-78): > 100 µM (inactive)
- GI50 (SF-295): > 100 µM (inactive)
- GI50 (Malme-3M): > 100 µM (inactive)
- GI50 (SR): > 100 µM (inactive)
- GI50 (NCI-H23): > 100 µM (inactive)
- GI50 (CCRF-CEM): > 100 µM (inactive)
- GI50 (SK-MEL-2): > 100 µM (inactive)
- GI50 (SN12C): > 100 µM (inactive)
- GI50 (MOLT-4): > 100 µM (inactive)
- GI50 (KM-20L2): > 100 µM (inactive)
- GI50 (SK-MEL-5): > 100 µM (inactive)
- GI50 (TK-10): > 100 µM (inactive)
- GI50 (SK-OV-3): > 100 µM (inactive)
- GI50 (UO-31): > 100 µM (inactive)
- GI50 (SF-268): > 100 µM (inactive)
- GI50 (HT-29): > 100 µM (inactive)
- GI50 (M19-MEL): > 100 µM (inactive)
- GI50 (HCT-15): > 100 µM
- GI50 (NCI-H226): > 100 µM (inactive)
- GI50 (HL-60): > 100 µM (inactive)
- GI50 (UACC-62): > 100 µM (inactive)
- GI50 (RXF 631): > 100 µM (inactive)
- GI50 (A549): > 100 µM (inactive)
- GI50 (U-251): > 100 µM (inactive)
- GI50 (UACC-257): > 100 µM (inactive)
- GI50 (EKVX): > 100 µM (inactive)
- GI50 (KM12): > 100 µM (inactive)
- GI50 (786-0): > 100 µM (inactive)
- GI50 (K562): > 100 µM (inactive)
- GI50 (HCC 2998): > 100 µM (inactive)
- GI50 (OVCAR-4): > 100 µM (inactive)
- GI50 (SK-MEL-28): > 100 µM (inactive)
- GI50 (SNB-75): > 100 µM (inactive)
- GI50 (IGROV-1): > 100 µM (inactive)
- GI50 (HCT-116): > 100 µM (inactive)
- GI50 (LOX IMVI): > 100 µM (inactive)
- GI50 (M14): > 100 µM (inactive)
- GI50 (HOP-62): > 100 µM (inactive)
- GI50 (NCI-H460): > 100 µM (inactive)
- GI50 (DLD-1): > 100 µM (inactive)
